{
  "source": "patent US4048328A",
  "about": "“Alkyl derivatives of 4,5-dehydro PGF1” (American Home Products Corporation, priority 1976, dated 1977)",
  "key": {"[1]": {"tested_on": "mated hamsters", "experiment": "abortifacient test in mated hamsters (Labhsetwar)", "type": "in vivo, hamster", "conditions": "Mesocricetus auratus, sc", "description": "Furthermore, when the compounds of this invention are tested by the method of A. P. Labhsetwar, Nature 230, 528 (1971) whereby the compound is given subcutaneously on a daily basis to mated hamsters on days 4, 5 and 6 of pregnancy, thereafter the animals being sacrificed on day 7 of pregnancy and the number of abortions counted, the compounds are shown to have abortifacient properties."}, "[2]": {"tested_on": "secretion of gastric acid", "experiment": "inhibition of gastric acid secretion in rats (Shay et al.)", "type": "in vivo", "conditions": "po; orally, rat", "description": "For example, when trans,cis-7-[2-(3-hydroxy-4,4-dimethyl-1-octenyl)-5-oxocyclopentyl]-5-heptanoic acid (Example 68) is given orally to the rat according to the aforementioned method, an ED50 of about 1.0 mg/kg is obtained for the compound."}, "[3]": {"tested_on": "horse", "experiment": "synchronization of estrus and regulation of ovulation in the horse", "type": "in vivo", "conditions": "given on second and third day before expected estrus; rectal palpation", "description": "It is often desirable to synchronize estrus in domestic animals, for example, horses, cattle, sheep, swine or dogs, in order to be able to perform artificial insemination or mating with a male of the desired genetic quality under optimum conditions. In the past, this has been done by administering to the animals an ovulation-inhibiting agent, withdrawing administration of said agent shortly before the date chosen for mating or artificial insemination, and relying either upon the natural production of LH and FSH to induce ovulation and to produce estrus or by administering gonadotrophins. However, this procedure was not entirely satisfactory because ovulation at a predetermined time occured only in a certain proportion of the animals when gonadotrophins were not used. On the other hand, the high cost of gonadotrophins and side effects encountered in their administration needs this method impractical. It is now possible to obtain substantially complete synchronization of ovulation and of estrus, by treating the animals in a given group with the compound of formula 1 before the predetermined period of time for mating or artificial insemination, so as to obtain ovulation and estrus within that time interval. The delay in the onset of ovulation and estrus following administration of the compound of this invention varies with the species of animal. […]"}, "[4]": {"tested_on": "histamine-induced bronchoconstriction", "experiment": "histamine-induced bronchoconstriction in the anesthetized guinea pig (Greenberg and Beaulieu)", "type": "in vivo", "description": "(§1) Maximal effect was seen within 3 minutes after 10 μg/kg and returned to the control level within 50 minutes. Hypotension of short duration (1 - 2 minutes) occurred following this mode of administration. […] Maximal effect was seen within 3 minutes after 0.1 μg/kg and returned to the control level within 70 minutes.\nPercentage inhibition of histamine-induced bronchoconstriction in the anesthetized guinea pig after intravenous administration of trans-7-[2-(3-hydroxy-3-methyl-1-octenyl)-5-oxocyclopentyl]heptanoic acid (Isomer B'). Each value is the mean of 8 - 12 experiments.\nPercentage inhibition of histamine-induced bronchoconstriction in the anesthetized guinea pig after aerosol administration of trans-7-[2-(3-hydroxy-3-methyl-1-oxtenyl)-5-oxocyclopentyl]heptanoic acid (Isomer B'). Each value is the mean of 8 - 12 experiments."}, "[5]": {"tested_on": "blood pressure", "experiment": "blood pressure after administration in the anesthetized guinea pig", "type": "in vivo", "conditions": "after aerosol administration", "description": "as §1"}, "[6]": {"tested_on": "guinea pig tracheal strip", "experiment": "relaxation of carbachol-induced contractions of isolated guinea pig tracheal strips", "conditions": "for RELAXATION of tracheal strip: carbachol-contracted, mean of 12 strips", "description": "The relaxation of the guinea pig tracheal strip by trans-7-[2-(3-hydroxy-3-methyl-1-octenyl)-5-oxocyclopentyl]heptanoic acid (Isomer B'). Each value is the mean of the responses of 12 strips."}, "[7]": {"tested_on": "gastric secretion", "conditions": "in vivo; cited from earlier work"}, "[8]": {"tested_on": "pregnancy", "conditions": "rhesus monkey; cited from earlier work"}, "[9]": {"tested_on": "pregnancy", "conditions": "human; cited from earlier work"}, "[10]": {"conditions": "basic and acidic conditions; cited from earlier work"}, "[11]": {"conditions": "168 h, subcutaneous, days 4, 5 and 6 of pregnancy, sacrificed day 7, read-out: dose giving complete abortion in all animals"}},
  "note": "Like-named read-outs stand apart in the source and are kept apart here.",
  "data": [
    {"smiles": "CCCCCC(C)(O)/C=C/[C@H]1CCC(=O)[C@@H]1C/C=C\\CCCC(=O)O", "note": "(relative stereo) [trans, cis-7-[2-(3-Hydroxy-3-methyl-1-octenyl)-5-oxocyclopentyl]-5-heptenoic Acid]", "values": [
      {"measurement": "ED100", "setting": "[1]; [11]", "result": 2.5, "unit": "mg/kg/day"}
    ]},
    {"smiles": "CCCCCC(C)(O)/C=C/[C@H]1CCC(=O)[C@@H]1CC/C=C\\CCC(=O)O", "note": "(relative stereo) [trans, cis-7-[2-(3-hydroxy-3-methyl-1-octenyl)-5-oxocyclopentyl]-4-heptenoic acid]", "values": [
      {"measurement": "ED100", "setting": "[1]; [11]", "result": 1, "unit": "mg/kg/day"}
    ]},
    {"smiles": "CCCCC(C)(C)C(O)/C=C/[C@H]1CCC(=O)[C@@H]1C/C=C\\CCCC(=O)O", "note": "(relative stereo) [trans, cis-7-[2-(3-hydroxy-4,4-dimethyl-1-octenyl)-5-oxocyclopentyl]-5-heptenoicacid]", "values": [
      {"measurement": "ED50", "setting": "[2]", "result": "~1", "unit": "mg/kg"}
    ]},
    {"smiles": "CCCCCC(C)(O)/C=C/[C@H]1CC[C@H](O)[C@@H]1C/C=C\\CCCC(=O)O", "note": "(relative stereo) [trans, cis-7-[2α-hydroxy-5-(3-hydroxy-3-methyl-1-octenyl)cyclopentyl]-5-heptenoic acid]", "values": [
      {"measurement": "ovulation after estrus (majority of animals)", "setting": "[3]", "result": "from the fourth to the sixth day"}
    ]},
    {"smiles": "CCCCCC(C)(O)/C=C/[C@H]1CCC(O)[C@@H]1C/C=C\\CCCC(=O)O", "note": "(relative stereo) [trans, cis-7[2-hydroxy-5-(3-hydroxy-3-methyl-1-octenyl)cyclopentyl]-5-heptenoic acid]", "values": [
      {"measurement": "ED100", "setting": "[1]; [11]", "result": 0.5, "unit": "mg/kg/day"}
    ]},
    {"smiles": "CCCCCC(C)(O)/C=C/[C@H]1CCC(=O)[C@@H]1CCCCCCC(=O)O", "note": "(relative stereo) [trans-7-[2-(3-hydroxy-3-methyl-1-octenyl)-5-oxocyclopentyl]-heptanoic acid]", "values": [
      {"measurement": "protection against histamine-induced bronchospasm", "setting": "[4]; anesthetized guinea pig", "result": "significant protection"}
    ]},
    {"smiles": "CCCCCC(C)(O)/C=C/[C@H]1CCC(=O)[C@@H]1CCCCCCC(=O)O", "note": "(single isomer, unassigned) [Isomer B', trans-7-[2-(3-hydroxy-3-methyl-1-octenyl)-5-oxocyclopentyl]-heptanoic acid]", "values": [
      {"measurement": "changes in the blood pressure", "setting": "[5]", "result": "no notable changes in the blood pressure"},
      {"measurement": "inhibition at 1e-05 mg/kg", "setting": "[4]; Cavia porcellus, intravenous, 0.01 μg/kg, mean of 8 - 12 experiments", "result": "14.8 ± 2", "unit": "%"},
      {"measurement": "inhibition at 0.0001 mg/kg", "setting": "[4]; Cavia porcellus, intravenous, 0.1 μg/kg, mean of 8 - 12 experiments", "result": "46.4 ± 5.5", "unit": "%"},
      {"measurement": "inhibition at 0.001 mg/kg", "setting": "[4]; Cavia porcellus, intravenous, 1.0 μg/kg, mean of 8 - 12 experiments", "result": "66 ± 5.4", "unit": "%"},
      {"measurement": "inhibition at 0.01 mg/kg", "setting": "[4]; Cavia porcellus, intravenous, 10.0 μg/kg, mean of 8 - 12 experiments", "result": "81.9 ± 5.2", "unit": "%"},
      {"measurement": "inhibition of histamine-induced bronchoconstriction, dose relation", "setting": "[4]; aerosol", "result": "linear dose related inhibition"},
      {"measurement": "times more potent than prostaglandin E2 or 11-deoxy-prostaglandin E1", "setting": "[4]; aerosol", "result": 78, "unit": "times"},
      {"measurement": "time of maximal effect", "setting": "[4]; aerosol, after 0.1 μg/kg", "result": "≤ 3", "unit": "min"},
      {"measurement": "time of return to the control level", "setting": "[4]; aerosol, after 0.1 μg/kg", "result": "≤ 70", "unit": "min"},
      {"measurement": "% INHIBITION of histamine-induced bronchoconstriction", "setting": "[4]; aerosol, total dose 10^-1 μg, mean of 8 - 12 experiments", "result": "78.1 ± 4.2", "unit": "%"},
      {"measurement": "% INHIBITION of histamine-induced bronchoconstriction", "setting": "[4]; aerosol, total dose 10^-2 μg, mean of 8 - 12 experiments", "result": "66.8 ± 4.7", "unit": "%"},
      {"measurement": "% INHIBITION of histamine-induced bronchoconstriction", "setting": "[4]; aerosol, total dose 10^-3 μg, mean of 8 - 12 experiments", "result": "49.3 ± 5.0", "unit": "%"},
      {"measurement": "% INHIBITION of histamine-induced bronchoconstriction", "setting": "[4]; aerosol, total dose 10^-4 μg, mean of 8 - 12 experiments", "result": "38.6 ± 5.9", "unit": "%"},
      {"measurement": "% INHIBITION of histamine-induced bronchoconstriction", "setting": "[4]; aerosol, total dose 10^-5 μg, mean of 8 - 12 experiments", "result": "20.9 ± 5.1", "unit": "%"},
      {"measurement": "inhibition of histamine-induced bronchoconstriction, dose relation", "setting": "[4]; intravenous", "result": "linear dose related inhibitions"},
      {"measurement": "times more potent than prostaglandin E2 or 11-deoxy-prostaglandin E1", "setting": "[4]; intravenous", "result": 32, "unit": "times"},
      {"measurement": "time of maximal effect", "setting": "[4]; intravenous, after 10 μg/kg", "result": "≤ 3", "unit": "min"},
      {"measurement": "time of return to the control level", "setting": "[4]; intravenous, after 10 μg/kg", "result": "≤ 50", "unit": "min"},
      {"measurement": "RELAXATION of tracheal strip", "setting": "[6]; 1.0 μg/ml", "result": "0.2 ± 0.2", "unit": "g"},
      {"measurement": "RELAXATION of tracheal strip", "setting": "[6]; 3.0 μg/ml", "result": "0.39 ± 0.04", "unit": "g"},
      {"measurement": "RELAXATION of tracheal strip", "setting": "[6]; 10 μg/ml", "result": "0.79 ± 0.1", "unit": "g"},
      {"measurement": "RELAXATION of tracheal strip", "setting": "[6]; 30 μg/ml", "result": "1.29 ± 0.1", "unit": "g"},
      {"measurement": "relaxation of the tracheal strip, dose relation", "setting": "[6]; cumulative concentrations", "result": "linear dose related relaxation"}
    ]},
    {"smiles": "CCCCCC(C)(O)CCC1CCC(=O)C1CCCCCCC(=O)O", "note": "(centres unmarked) [2-(3-hydroxy-3-methyl-octyl)-5-oxocyclopentaneheptanoic acid, reference compound]", "values": [
      {"measurement": "ED100", "setting": "[1]; comparison with saturated 15-methyl analog, above test, read-out: dose below which complete abortion is not caused", "result": "≥ 30", "unit": "mg/kg/day"}
    ]},
    {"smiles": "CCCCC[C@@](C)(O)/C=C/[C@H]1[C@H](O)CC(=O)[C@@H]1C/C=C\\CCCC(=O)O", "note": "[15(R)-methyl]", "values": [
      {"measurement": "effect on gastric secretion", "setting": "[7]", "result": "inhibit gastric secretion"}
    ]},
    {"smiles": "CCCCC[C@](C)(O)/C=C/[C@H]1[C@H](O)CC(=O)[C@@H]1C/C=C\\CCCC(=O)O", "note": "[15(S)-methyl PGE2]", "values": [
      {"measurement": "effect on gastric secretion", "setting": "[7]", "result": "inhibit gastric secretion"}
    ]},
    {"smiles": "CCCCC[C@](C)(O)/C=C/[C@@H]1[C@@H](C/C=C\\CCCC(=O)O)[C@@H](O)C[C@H]1O", "note": "[15-Methyl PGF2α]", "values": [
      {"measurement": "effect on pregnancy", "setting": "[8]", "result": "interrupt pregnancy"},
      {"measurement": "effect on pregnancy", "setting": "[9]", "result": "interrupt pregnancy"}
    ]},
    {"smiles": "CCCCCC(C)(O)/C=C/[C@H]1[C@H](O)CC(=O)[C@@H]1C/C=C\\CCCC(=O)OC", "note": "(some centres unmarked) [15-methyl PGE2 methyl esters]", "values": [
      {"measurement": "effect on pregnancy", "setting": "[8]", "result": "interrupt pregnancy"},
      {"measurement": "effect on pregnancy", "setting": "[9]", "result": "interrupt pregnancy"}
    ]},
    {"smiles": "CCCCC(C)(C)[C@H](O)/C=C/[C@H]1[C@H](O)CC(=O)[C@@H]1C/C=C\\CCCC(=O)OC", "note": "[16,16-dimethyl PGE2 methyl ester]", "values": [
      {"measurement": "effect on gastric secretion", "setting": "[7]", "result": "effective in inhibiting gastric acid secretion"}
    ]},
    {"smiles": "CCCCC[C@H](O)/C=C/[C@H]1[C@H](O)CC(=O)[C@@H]1C/C=C\\CCCC(=O)O", "note": "[PGE2]", "values": [
      {"measurement": "dehydration of the 11-hydroxy group", "setting": "[10]", "result": "participates readily in dehydration reactions"}
    ]}
  ]
}
